The source of these data is US20100184677A1, “USE OF THE HUMAN PANCREATIC POLYPEPTIDE AS A THERAPEUTIC AGENT” (priority 2007, published 2010).

Data set [1] relates to HepG2-2.2.15 cells. Description: Cell viability (dye uptake assay) in HepG2-2.2.15 cells. As to conditions: HepG2-2.2.15 cells; test peptide 10 micrograms per ml; dye uptake assay (% cell control).
The subject of data set [2] is Pseudomonas aeruginosa. The data set is classed as cell-based. The settings on record: 5 micrograms per ml.
Data set [3] concerns Streptococcus pneumoniae. It counts as cell-based. The settings on record: 5 micrograms per ml.
In data set [4] the test system is MRSA. As to conditions: 5 micrograms per ml.
Data set [5] can be described thus: in vitro. The settings on record: human.
A short description of data set [6]: in vitro. As to conditions: human, MRC-5 cells (embryonal lung fibroblasts).
The nature of data set [7]: Cell viability (dye uptake assay) in HepG2-2.2.15 cells. The settings on record: human.
Data set [8] relates to MRC-5 cells. The settings on record: human, 6 days.

For the compound `Nc1ccn([C@@H]2CS[C@H](CO)O2)c(=O)n1` [3TC, Lamivudine, reference compound], the “% Cell Viability” value in data set [1] was 95.8%.
As for `CC[C@H](C)[C@H](NC(=O)[C@H](Cc1ccc(O)cc1)NC(=O)[C@H](CCCNC(=N)N)NC(=O)[C@H](CCCNC(=N)N)NC(=O)[C@H](CC(C)C)NC(=O)[C@H](CC(=O)O)NC(=O)[C@H](C)NC(=O)[C@H](C)NC(=O)[C@H](Cc1ccc(O)cc1)NC(=O)[C@H](CCC(N)=O)NC(=O)[C@H](C)NC(=O)[C@H](CCSC)NC(=O)[C@H](CCC(N)=O)NC(=O)[C@H](CCC(=O)O)NC(=O)[C@@H]1CCCN1C(=O)[C@@H](NC(=O)[C@H](C)NC(=O)[C@H](CC(N)=O)NC(=O)[C@H](CC(=O)O)NC(=O)CNC(=O)[C@@H]1CCCN1C(=O)[C@H](Cc1ccc(O)cc1)NC(=O)[C@@H](NC(=O)[C@@H]1CCCN1C(=O)[C@H](CCC(=O)O)NC(=O)[C@H](CC(C)C)NC(=O)[C@@H]1CCCN1C(=O)[C@H](C)N)C(C)C)[C@@H](C)O)C(=O)N[C@@H](CC(N)=O)C(=O)N[C@@H](CCSC)C(=O)N[C@@H](CC(C)C)C(=O)N[C@H](C(=O)N[C@@H](CCCNC(=N)N)C(=O)N1CCC[C@H]1C(=O)N[C@@H](CCCNC(=N)N)C(=O)N[C@@H](Cc1ccc(O)cc1)C(N)=O)[C@@H](C)O` [Pancreatic polypeptide], the “% inhibition” value in data set [2], in data set [3] and in data set [4] was 0.0% in each case. The viability (usually a read-out of living cells in per cent, often relative to untreated cells) at 10 micrograms per ml in data set [5] worked out at 90.2%. In addition, the viability at 144 h in data set [6] was determined as 100%. For the same compound, in data set [7], the viability at 144 h, 10 micrograms per ml worked out at 92.5%.
Regarding `Nc1nc(O)c2ncn(COC(CO)CO)c2n1` [Ganciclovir], in data set [8], the “% Cell Viability” value turned out to be 100%.
